Experimental data from PubChem BioAssay AID330 (DTP/NCI, 2004).
“And” between values parts separate entries of the source, which are not always exact repeats. Equal entries are not always repeated. Toxic doses and inconclusive results are not listed. The calls were made as follows: active = survival T/C of 150% or more; inactive = T/C below 125% in these data.

System: P388 leukemia ip, CD2F1 mice, survival T/C
Experiment: NCI In Vivo Anticancer Drug Screen. Data for tumor model P388 Leukemia (intraperitoneal) in CD2F1 (CDF1) mice
Settings: endpoint: median survival time, higher = longer survival
How it was run: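 Mice carrying the transplanted tumor received test compound or vehicle. Survival was recorded in each group, and the value is the treated-group measurement divided by that of the vehicle-treated control group.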

[1] = dose: 50.0 mg/kg/injection, schedule: Q04DX003 (ip), vehicle: Klucel (hydroxypropylcellulose) (HPC)
[2] = dose: 100.0 mg/kg/injection, schedule: Q04DX003 (ip), vehicle: Klucel (hydroxypropylcellulose) (HPC)
[3] = dose: 200.0 mg/kg/injection, schedule: Q04DX003 (ip), vehicle: Klucel (hydroxypropylcellulose) (HPC)
[4] = dose: 100.0 mg/kg/injection, schedule: Q04DX002 (ip), vehicle: saline with Tween-80
[5] = dose: 200.0 mg/kg/injection, schedule: Q04DX002 (ip), vehicle: saline with Tween-80
[6] = dose: 50.0 mg/kg/injection, schedule: Q01DX009 (ip), vehicle: saline with Tween-80
[7] = dose: 100.0 mg/kg/injection, schedule: Q01DX009 (ip), vehicle: saline with Tween-80
[8] = dose: 200.0 mg/kg/injection, schedule: Q01DX009 (ip), vehicle: saline with Tween-80
[9] = dose: 50.0 mg/kg/injection, schedule: Q01DX005 (ip), vehicle: saline with Tween-80
[10] = dose: 100.0 mg/kg/injection, schedule: Q01DX005 (ip), vehicle: saline with Tween-80
[11] = dose: 200.0 mg/kg/injection, schedule: Q01DX005 (ip), vehicle: saline with Tween-80

Measured: T/C

NC(N)=NS(=O)(=O)c1ccc(NCc2c3ccccc3nc3ccccc23)cc1
inactive: dose: 3.12 mg/kg/injection, schedule: Q04DX002 (ip), vehicle: Klucel (hydroxypropylcellulose) (HPC) 114 % of control
active: dose: 12.5 mg/kg/injection, schedule: Q04DX002 (ip), vehicle: Klucel (hydroxypropylcellulose) (HPC) 165 % of control | dose: 25.0 mg/kg/injection, schedule: Q04DX002 (ip), vehicle: Klucel (hydroxypropylcellulose) (HPC) 172 % of control | dose: 50.0 mg/kg/injection, schedule: Q04DX002 (ip), vehicle: Klucel (hydroxypropylcellulose) (HPC) 166 % of control | [1] 151 % of control and 156 % of control | dose: 100.0 mg/kg/injection, schedule: Q04DX002 (ip), vehicle: Klucel (hydroxypropylcellulose) (HPC) 174 % of control | [2] 168 % of control and 169 % of control | dose: 200.0 mg/kg/injection, schedule: Q04DX002 (ip), vehicle: Klucel (hydroxypropylcellulose) (HPC) 151 % of control | [3] 174 % of control and 180 % of control | dose: 400.0 mg/kg/injection, schedule: Q04DX002 (ip), vehicle: Klucel (hydroxypropylcellulose) (HPC) 169 % of control | dose: 400.0 mg/kg/injection, schedule: Q04DX003 (ip), vehicle: Klucel (hydroxypropylcellulose) (HPC) 155 % of control and 202 % of control and 207 % of control | dose: 800.0 mg/kg/injection, schedule: Q04DX002 (ip), vehicle: Klucel (hydroxypropylcellulose) (HPC) 161 % of control | dose: 800.0 mg/kg/injection, schedule: Q04DX003 (ip), vehicle: Klucel (hydroxypropylcellulose) (HPC) 162 % of control and 210 % of control and 250 % of control

COc1cc(C2c3cc4c(c(OC5OC(CO)C(O)C5O)c3CC3COC(=O)C32)OCO4)cc(OC)c1OC (centres undefined)
inactive: dose: 100.0 mg/kg/injection, schedule: Q01DX001 (ip), vehicle: Klucel (hydroxypropylcellulose) (HPC) 108 % of control | dose: 200.0 mg/kg/injection, schedule: Q01DX001 (ip), vehicle: Klucel (hydroxypropylcellulose) (HPC) 108 % of control | dose: 400.0 mg/kg/injection, schedule: Q01DX001 (ip), vehicle: Klucel (hydroxypropylcellulose) (HPC) 113 % of control

O=Cc1cccc(S(=O)(=O)O)c1
inactive: dose: 60.0 mg/kg/injection, schedule: Q01DX005 (ip), vehicle: saline 100 % of control | dose: 120.0 mg/kg/injection, schedule: Q01DX005 (ip), vehicle: saline 94 % of control | dose: 240.0 mg/kg/injection, schedule: Q01DX005 (ip), vehicle: saline 102 % of control

O=C(c1ccccc1)c1ccc([N+](=O)[O-])cc1
inactive: dose: 3.13 mg/kg/injection, schedule: Q01DX009 (ip), vehicle: saline with Tween-80 97 % of control | dose: 6.25 mg/kg/injection, schedule: Q01DX009 (ip), vehicle: saline with Tween-80 95 % of control | dose: 12.5 mg/kg/injection, schedule: Q01DX009 (ip), vehicle: saline with Tween-80 91 % of control | dose: 25.0 mg/kg/injection, schedule: Q01DX009 (ip), vehicle: saline with Tween-80 91 % of control | dose: 50.0 mg/kg/injection, schedule: Q04DX003 (ip), vehicle: saline with Tween-80 95 % of control | dose: 100.0 mg/kg/injection, schedule: Q04DX003 (ip), vehicle: saline with Tween-80 100 % of control | dose: 200.0 mg/kg/injection, schedule: Q04DX003 (ip), vehicle: saline with Tween-80 109 % of control

N#[O+].O.O=N[O-].O=N[O-].[NH2-].[NH2-].[Ru+2]
inactive: dose: 12.5 mg/kg/injection, schedule: Q04DX003 (ip), vehicle: water 110 % of control | dose: 25.0 mg/kg/injection, schedule: Q04DX003 (ip), vehicle: water 111 % of control | dose: 50.0 mg/kg/injection, schedule: Q04DX003 (ip), vehicle: water 118 % of control | dose: 100.0 mg/kg/injection, schedule: Q04DX003 (ip), vehicle: water 111 % of control | dose: 200.0 mg/kg/injection, schedule: Q04DX003 (ip), vehicle: water 102 % of control

C=C(C)C1CC2=C(C(=O)OC)C=C(O2)C(C(=C)C)C2OC(=O)/C(=C\C1O)C2OC (centres undefined)
inactive: dose: 11.88 mg/kg/injection, schedule: Q01DX005 (ip), vehicle: saline + alcohol 99 % of control | dose: 23.75 mg/kg/injection, schedule: Q01DX005 (ip), vehicle: saline + alcohol 96 % of control | dose: 47.5 mg/kg/injection, schedule: Q01DX005 (ip), vehicle: saline + alcohol 101 % of control | dose: 95.0 mg/kg/injection, schedule: Q01DX005 (ip), vehicle: saline + alcohol 108 % of control | dose: 190.0 mg/kg/injection, schedule: Q01DX005 (ip), vehicle: saline + alcohol 99 % of control

O=C1C(C(=NC2CCCCC2)c2ccccc2)=C(O)c2ccccc21
inactive: [4] 104 % of control | [5] 100 % of control

CC1(CCl)Nc2ccccc2C(=O)N1c1ccc(F)cc1 (centres undefined)
inactive: [6] 103 % of control | [7] 95 % of control | [8] 95 % of control

CCNc1cc(N)[n+](CC)c2n[nH]c(/N=C/c3cc(Cl)cc(Cl)c3O)c12
inactive: [9] 97 % of control | [10] 87 % of control | [11] 93 % of control

C/C(=N\NC(=S)SCc1ccccc1)c1ccccn1
inactive: dose: 3.12 mg/kg/injection, schedule: Q01DX009 (ip), vehicle: Klucel (hydroxypropylcellulose) (HPC) 108 % of control | dose: 6.25 mg/kg/injection, schedule: Q01DX009 (ip), vehicle: Klucel (hydroxypropylcellulose) (HPC) 103 % of control and 110 % of control

Cc1ccccc1N=C1SCC(=O)N1c1ccccc1C
inactive: [9] 96 % of control | [10] 99 % of control | [11] 91 % of control

CCCCNC(=O)C1C2C=CC(O2)C1C(=O)O (centres undefined)
inactive: dose: 50.0 mg/kg/injection, schedule: Q01DX005 (ip), vehicle: Klucel (hydroxypropylcellulose) (HPC) 100 % of control | dose: 100.0 mg/kg/injection, schedule: Q01DX005 (ip), vehicle: Klucel (hydroxypropylcellulose) (HPC) 93 % of control | dose: 200.0 mg/kg/injection, schedule: Q01DX005 (ip), vehicle: Klucel (hydroxypropylcellulose) (HPC) 89 % of control

COc1cccc2c1C(=O)c1c(O)c3c(c(O)c1C2=O)C[C@@](O)(C(C)=O)C[C@@H]3OC1CC(N2CCOCC2C#N)C(O)C(C)O1 (some centres undefined)
inactive: dose: 0.78 mg/kg/injection, schedule: Q04DX003 (ip), vehicle: water 95 % of control
active: dose: 0.2 mg/kg/injection, schedule: Q04DX003 (ip), vehicle: water 191 % of control | dose: 0.39 mg/kg/injection, schedule: Q04DX003 (ip), vehicle: distilled water + Tween-80 187 % of control | dose: 0.39 mg/kg/injection, schedule: Q04DX003 (ip), vehicle: water 207 % of control

O=C1Nc2ccccc2C12Nc1ccccc1N2
inactive: dose: 25.0 mg/kg/injection, schedule: Q04DX003 (ip), vehicle: Klucel (hydroxypropylcellulose) (HPC) 108 % of control | [1] 95 % of control | [2] 97 % of control | [3] 90 % of control and 91 % of control

C=C(C)n1c(=O)[nH]c2ccccc21
inactive: dose: 50.0 mg/kg/injection, schedule: Q01DX009 (ip), vehicle: saline 87 % of control | dose: 100.0 mg/kg/injection, schedule: Q01DX009 (ip), vehicle: saline 87 % of control | dose: 200.0 mg/kg/injection, schedule: Q01DX009 (ip), vehicle: saline 89 % of control

NC(=S)N/N=C\C(=O)c1cccc(O)c1
inactive: [6] 99 % of control | [7] 100 % of control | [8] 105 % of control

C1CCC(CCCCc2nn[nH]n2)CC1
inactive: [9] 102 % of control | [10] 100 % of control

Cc1ccc(NCCNCC(O)CO)c2c(=O)c3ccccc3sc12 (centres undefined)
inactive: dose: 12.5 mg/kg/injection, schedule: Q01DX005 (ip), vehicle: Klucel (hydroxypropylcellulose) (HPC) 109 % of control | dose: 25.0 mg/kg/injection, schedule: Q01DX005 (ip), vehicle: Klucel (hydroxypropylcellulose) (HPC) 118 % of control
active: dose: 50.0 mg/kg/injection, schedule: Q01DX005 (ip), vehicle: saline 151 % of control

Cc1cccc(N=C(C2=C(O)c3ccccc3C2=O)c2ccccc2)c1
inactive: dose: 25.0 mg/kg/injection, schedule: Q04DX002 (ip), vehicle: saline with Tween-80 100 % of control | dose: 50.0 mg/kg/injection, schedule: Q04DX002 (ip), vehicle: saline with Tween-80 97 % of control | [4] 98 % of control | [5] 92 % of control | dose: 400.0 mg/kg/injection, schedule: Q04DX002 (ip), vehicle: saline with Tween-80 97 % of control

O=C(CCCl)N/N=C/c1ccccc1
inactive: dose: 2.5 mg/kg/injection, schedule: Q01DX009 (ip), vehicle: saline 104 % of control | dose: 5.0 mg/kg/injection, schedule: Q01DX009 (ip), vehicle: saline 98 % of control and 101 % of control | dose: 10.0 mg/kg/injection, schedule: Q01DX009 (ip), vehicle: saline 114 % of control and 115 % of control
